Experimental data reported in US6706663B2, “Herbicidal 3-heterocyclic substituted benzisothiazole and benzisoxazole compounds” (Wyeth, priority 2000, dated 2004).

Assays:
[1] = test system: CYPSE (Cyperus serotinus); experiment: Flooded paddy, preemergence weed control; assay type: in vivo, Rottb.; settings: rated 3-4 weeks after treatment, 0-9 rating scale
Procedure, shortened: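 Seeds or propagules were planted 0.5 cm deep in silt loam and flooded to 1.5–3 cm. Compounds in 50/50 v/v aqueous/acetone were pipetted into the flood water at about 0.0080 to 0.1250 kg/ha. After 3–4 weeks in the greenhouse, effect was rated visually on a 0–9 scale versus untreated control.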

[2] = test system: TRZAWR (Wheat, Winter, cv Riband); experiment: Preemergence herbicidal evaluation; assay type: in vivo, Triticum aestivum; settings: preemergence, rated 4-5 weeks after treatment
Procedure, shortened: (§1)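 Greenhouse preemergence test: freshly planted cups were sprayed once with an aqueous acetone solution of compound. Injury was judged visually on a 0–9 scale relative to a control, four to five weeks later.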

GALAP (Galium aparine) [3] = experiment: Postemergence herbicidal evaluation; assay type: in vivo
Procedure, shortened: (§2)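 Seedlings grown for about two weeks were sprayed postemergence and then kept under standard greenhouse care. Injury was rated visually 4–5 weeks after treatment on a 0–9 scale against untreated controls, and ratings from repeat tests were averaged.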

[4] = test system: CHEAL (Chenopodium album); experiment: Postemergence herbicidal evaluation; assay type: in vivo, L.
Procedure, shortened: as §2

[5] = test system: CASOB (Cassia obtusifolia); experiment: Postemergence herbicidal evaluation; assay type: in vivo, L.
Procedure, shortened: as §2

[6] = test system: AMBEL (Ambrosia artemisifolia); experiment: Postemergence herbicidal evaluation; assay type: in vivo, L.
Procedure, shortened: as §2

ORYSAT (Rice, Tebonnet) [7] = experiment: Postemergence herbicidal evaluation; assay type: in vivo, Oryza sativa, (L.) Tebonnet
Procedure, shortened: as §2

[8] = test system: IPOHE (Ipomoea hederacea); experiment: Preemergence herbicidal evaluation; assay type: in vivo, (L.) Jacq.; settings: preemergence, rated 4-5 weeks after treatment
ORYSAT (Rice, Tebonnet) [9] = experiment: Preemergence herbicidal evaluation; assay type: in vivo, Oryza sativa, (L.) Tebonnet; settings: preemergence, rated 4-5 weeks after treatment
[10] = test system: SAGPY (Sagittaria pygmaea); experiment: Flooded paddy, preemergence weed control; assay type: in vivo, L.; settings: rated 3-4 weeks after treatment, 0-9 rating scale
Procedure, shortened: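 Plants were established from seed or propagating organs in flooded silt loam, with the water surface held 1.5 to 3 cm above the soil for the entire experiment. Injury was assessed visually against a control and given a 0-9 score.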

[11] = test system: ABUTH (Abutilon theophrasti); experiment: Preemergence herbicidal evaluation; assay type: in vivo, Medic.; settings: preemergence, rated 4-5 weeks after treatment
ZEAMX (Corn, Field) = experiment: Postemergence herbicidal evaluation; assay type: in vivo, Zea mays, L.
Procedure, shortened: as §2

[12] = test system: CHEAL (Chenopodium album); experiment: Preemergence herbicidal evaluation; assay type: in vivo, L.; settings: preemergence, rated 4-5 weeks after treatment
Procedure, shortened: as §1

[13] = test system: CASOB (Cassia obtusifolia); experiment: Preemergence herbicidal evaluation; assay type: in vivo, L.; settings: preemergence, rated 4-5 weeks after treatment
Procedure, shortened: as §1

[14] = test system: AMBEL (Ambrosia artemisifolia); experiment: Preemergence herbicidal evaluation; assay type: in vivo, L.; settings: preemergence, rated 4-5 weeks after treatment
Procedure, shortened: as §1

[15] = test system: ABUTH (Abutilon theophrasti); experiment: Postemergence herbicidal evaluation; assay type: in vivo, Medic.
Procedure, shortened: as §2

[16] = test system: GLXMAW (Soybean, Williams); experiment: Postemergence herbicidal evaluation; assay type: in vivo, Glycine max, (L.) Merr. cv Williams
Procedure, shortened: as §2

ORYSAT (Rice, Tebonnet) [17] = experiment: Flooded paddy, post-transplant rice tolerance; assay type: in vivo, Oryza sativa, (L.) Tebonnet; settings: flooded paddy, post-transplant rice, rated 3-4 weeks after treatment, 0-9 rating scale
Procedure, shortened: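 Ten-day-old seedlings, 2/pot, silt loam; flood kept 1.5–3 cm over soil; herbicide applied post-transplant; greenhouse; score 0–9 visual vs control.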

[18] = test system: ECHCG (Echinochloa crus-galli); experiment: Postemergence herbicidal evaluation; assay type: in vivo, (L.) Beau
Procedure, shortened: as §2

GALAP (Galium aparine) [19] = experiment: Preemergence herbicidal evaluation; assay type: in vivo; settings: preemergence, rated 4-5 weeks after treatment
Procedure, shortened: as §1

## Cc1ccsc1-c1nsc2ccc(-n3c(=O)cc(C(F)(F)F)n(C)c3=O)cc12 [Compound 4, 1-methyl-3-[3-(3-methyl-2-thienyl)-1,2-benzisothiazol-5-yl]-6-(trifluoromethyl)uracil]
[1]; rate 0.0080 kg/ha
  herbicidal rating, CYPSE: 0.0
[1]; rate 0.0320 kg/ha
  herbicidal rating, CYPSE: 6.5
[1]; rate 0.1250 kg/ha
  herbicidal rating, CYPSE: 9.0
[2]; Rate 0.0620 kg/ha
  TRZAWR preemergence herbicidal rating: 1.2
[2]; Rate 0.1250 kg/ha
  TRZAWR preemergence herbicidal rating: 2.5
[2]; Rate 0.2500 kg/ha
  TRZAWR preemergence herbicidal rating: 4.3
GALAP (Galium aparine) [3]; rate 0.0320 kg/ha
  Postemergence herbicidal rating, GALAP: 3.3
GALAP (Galium aparine) [3]; rate 0.0620 kg/ha
  Postemergence herbicidal rating, GALAP: 6.0
GALAP (Galium aparine) [3]; rate 0.1250 kg/ha
  Postemergence herbicidal rating, GALAP: 8.3
[4]; rate 0.0320 kg/ha
  Postemergence herbicidal rating, CHEAL: 9.0
[4]; rate 0.0620 kg/ha
  Postemergence herbicidal rating, CHEAL: 9.0
[4]; rate 0.1250 kg/ha
  Postemergence herbicidal rating, CHEAL: 9.0
[5]; rate 0.0320 kg/ha
  Postemergence herbicidal rating, CASOB: 5.2
[5]; rate 0.0620 kg/ha
  Postemergence herbicidal rating, CASOB: 6.2
[5]; rate 0.1250 kg/ha
  Postemergence herbicidal rating, CASOB: 9.0
[6]; rate 0.0320 kg/ha
  Postemergence herbicidal rating, AMBEL: 8.1
[6]; rate 0.0620 kg/ha
  Postemergence herbicidal rating, AMBEL: 8.3
[6]; rate 0.1250 kg/ha
  Postemergence herbicidal rating, AMBEL: 9.0
ORYSAT (Rice, Tebonnet) [7]; rate 0.0320 kg/ha
  Postemergence herbicidal rating, ORYSAT: 2.8
ORYSAT (Rice, Tebonnet) [7]; rate 0.0620 kg/ha
  Postemergence herbicidal rating, ORYSAT: 3.8
ORYSAT (Rice, Tebonnet) [7]; rate 0.1250 kg/ha
  Postemergence herbicidal rating, ORYSAT: 4.5
[8]; Rate 0.0620 kg/ha
  IPOHE preemergence herbicidal rating: 4.7
[8]; Rate 0.1250 kg/ha
  IPOHE preemergence herbicidal rating: 6.3
[8]; Rate 0.2500 kg/ha
  IPOHE preemergence herbicidal rating: 7.6
ORYSAT (Rice, Tebonnet) [9]; Rate 0.0620 kg/ha
  ORYSAT preemergence herbicidal rating: 1.4
ORYSAT (Rice, Tebonnet) [9]; Rate 0.1250 kg/ha
  ORYSAT preemergence herbicidal rating: 1.9
ORYSAT (Rice, Tebonnet) [9]; Rate 0.2500 kg/ha
  ORYSAT preemergence herbicidal rating: 2.8
[10]; rate 0.0080 kg/ha
  herbicidal rating, SAGPY: 0.0
[10]; rate 0.0320 kg/ha
  herbicidal rating, SAGPY: 2.0
[10]; rate 0.1250 kg/ha
  herbicidal rating, SAGPY: 5.5
[11]; Rate 0.0620 kg/ha
  ABUTH preemergence herbicidal rating: 7.8
[11]; Rate 0.1250 kg/ha
  ABUTH preemergence herbicidal rating: 8.9
[11]; Rate 0.2500 kg/ha
  ABUTH preemergence herbicidal rating: 9.0
ZEAMX (Corn, Field); rate 0.0320 kg/ha
  Postemergence herbicidal rating, ZEAMX: 4.4
ZEAMX (Corn, Field); rate 0.0620 kg/ha
  Postemergence herbicidal rating, ZEAMX: 4.5
ZEAMX (Corn, Field); rate 0.1250 kg/ha
  Postemergence herbicidal rating, ZEAMX: 5.0
[12]; Rate 0.0620 kg/ha
  CHEAL preemergence herbicidal rating: 9.0
[12]; Rate 0.1250 kg/ha
  CHEAL preemergence herbicidal rating: 9.0
[12]; Rate 0.2500 kg/ha
  CHEAL preemergence herbicidal rating: 8.0
[13]; Rate 0.0620 kg/ha
  CASOB preemergence herbicidal rating: 1.3
[13]; Rate 0.1250 kg/ha
  CASOB preemergence herbicidal rating: 3.4
[13]; Rate 0.2500 kg/ha
  CASOB preemergence herbicidal rating: 5.0
[14]; Rate 0.0620 kg/ha
  AMBEL preemergence herbicidal rating: 5.9
[14]; Rate 0.1250 kg/ha
  AMBEL preemergence herbicidal rating: 7.3
[14]; Rate 0.2500 kg/ha
  AMBEL preemergence herbicidal rating: 8.9
[15]; rate 0.0320 kg/ha
  Postemergence herbicidal rating, ABUTH: 9.0
[15]; rate 0.0620 kg/ha
  Postemergence herbicidal rating, ABUTH: 9.0
[15]; rate 0.1250 kg/ha
  Postemergence herbicidal rating, ABUTH: 9.0
[16]; rate 0.0320 kg/ha
  Postemergence herbicidal rating, GLXMAW: 6.2
[16]; rate 0.0620 kg/ha
  Postemergence herbicidal rating, GLXMAW: 6.8
[16]; rate 0.1250 kg/ha
  Postemergence herbicidal rating, GLXMAW: 7.3
ORYSAT (Rice, Tebonnet) [17]; rate 0.0080 kg/ha
  herbicidal rating, ORYSAT (rice tolerance): 2.0
ORYSAT (Rice, Tebonnet) [17]; rate 0.0320 kg/ha
  herbicidal rating, ORYSAT (rice tolerance): 3.5
ORYSAT (Rice, Tebonnet) [17]; rate 0.1250 kg/ha
  herbicidal rating, ORYSAT (rice tolerance): 4.0
[18]; rate 0.0320 kg/ha
  Postemergence herbicidal rating, ECHCG: 2.0
[18]; rate 0.0620 kg/ha
  Postemergence herbicidal rating, ECHCG: 2.8
[18]; rate 0.1250 kg/ha
  Postemergence herbicidal rating, ECHCG: 1.7
GALAP (Galium aparine) [19]; Rate 0.0620 kg/ha
  GALAP preemergence herbicidal rating: 5.0
GALAP (Galium aparine) [19]; Rate 0.1250 kg/ha
  GALAP preemergence herbicidal rating: 8.0
GALAP (Galium aparine) [19]; Rate 0.2500 kg/ha
  GALAP preemergence herbicidal rating: 9.0
